Measured values: ChEMBL document CHEMBL1124752, “Cyclobut-A and cyclobut-G: broad-spectrum antiviral agents with potential utility for the therapy of AIDS” (J Med Chem, 1990)

Assays:
Assay type in all cases: functional
[1] = system: Human immunodeficiency virus 1; assay: Tested for the determination of percentage protection at 1 uM concentrations against HIV-1 in ATH8 Cells
[2] = system: Human immunodeficiency virus 1; assay: Tested for the determination of percentage protection at 100 uM concentrations against HIV-1 in ATH8 Cells
[3] = system: Human immunodeficiency virus 1; assay: Tested for the determination of percentage protection at 20 uM concentrations against HIV-1 in ATH8 Cells
[4] = system: Human immunodeficiency virus 1; assay: Tested for the determination of percentage protection at 5 uM concentrations against HIV-1 in ATH8 Cells
[5] = system: Human immunodeficiency virus 1; assay: Tested for the determination of percentage toxicity at 20 uM concentrations against HIV-1 in ATH8 Cells
[6] = system: Human immunodeficiency virus 1; assay: Tested for the determination of percentage toxicity at 5 uM concentrations against HIV-1 in ATH8 Cells
[7] = system: Human immunodeficiency virus 1; assay: Tested for the determination of percentage toxicity at 1 uM concentrations against HIV-1 in ATH8 Cells
[8] = system: Human immunodeficiency virus 1; assay: Tested for the determination of percentage toxicity at 100 uM concentrations against HIV-1 in ATH8 Cells

In the case of `Cc1cn([C@H]2C[C@H](N=[N+]=[N-])[C@@H](CO)O2)c(=O)[nH]c1=O` [ZIDOVUDINE], the Protection [1] is reported as 65%, the Protection [2] is reported as 47% and the Protection [3] is reported as 65%. It also gave a Protection [4] of 96%, a Cytotoxicity [5] of 54% and a Cytotoxicity [6] of 30%. It also gave a Cytotoxicity [7] of 3% and a Cytotoxicity [8] of 54%.
